Assay results as given in PubChem BioAssay (NCI).
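How tested: cells in 96-well plates exposed to compound for 48 hours at five concentrations. GI50 marks 50% less growth. TGI marks complete inhibition of growth.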

Legend:
Assay in all cases: inhibition of tumour cell growth, NCI panel, 48 h
UO-31 renal = system: UO-31 renal
HS 578T breast = system: HS 578T breast
MALME-3M melanoma = system: MALME-3M melanoma
NCI-H522 lung = system: NCI-H522 lung
SF-295 CNS = system: SF-295 CNS
T-47D breast = system: T-47D breast
IGROV1 ovarian = system: IGROV1 ovarian
UACC-62 melanoma = system: UACC-62 melanoma
HT29 colon = system: HT29 colon
LOX IMVI melanoma = system: LOX IMVI melanoma
CCRF-CEM leukemia = system: CCRF-CEM leukemia
MDA-MB-231 breast = system: MDA-MB-231 breast
RXF 393 renal = system: RXF 393 renal
SK-OV-3 ovarian = system: SK-OV-3 ovarian
OVCAR-3 ovarian = system: OVCAR-3 ovarian
NCI-H460 lung = system: NCI-H460 lung
M14 melanoma = system: M14 melanoma
A549 NSCLC = system: A549 NSCLC
SK-MEL-5 melanoma = system: SK-MEL-5 melanoma
OVCAR-8 ovarian = system: OVCAR-8 ovarian
SN12C renal = system: SN12C renal
CAKI-1 renal = system: CAKI-1 renal
A498 renal = system: A498 renal
SNB-75 CNS = system: SNB-75 CNS
UACC-257 melanoma = system: UACC-257 melanoma
TK-10 renal = system: TK-10 renal
PC-3 prostate = system: PC-3 prostate
SF-539 CNS = system: SF-539 CNS
OVCAR-5 ovarian = system: OVCAR-5 ovarian
HCT-116 colon = system: HCT-116 colon
EKVX NSCLC = system: EKVX NSCLC
DU-145 prostate = system: DU-145 prostate
HOP-92 NSCLC = system: HOP-92 NSCLC
786-0 renal = system: 786-0 renal
COLO 205 colon = system: COLO 205 colon
OVCAR-4 ovarian = system: OVCAR-4 ovarian
SR leukemia = system: SR leukemia
SK-MEL-2 melanoma = system: SK-MEL-2 melanoma
KM12 colon = system: KM12 colon
NCI-H226 lung = system: NCI-H226 lung
SF-268 CNS = system: SF-268 CNS
SK-MEL-28 melanoma = system: SK-MEL-28 melanoma
HL-60(TB) leukemia = system: HL-60(TB) leukemia
SW-620 colon = system: SW-620 colon
K-562 leukemia = system: K-562 leukemia
SNB-19 CNS = system: SNB-19 CNS
MCF7 breast = system: MCF7 breast
ACHN renal = system: ACHN renal
RPMI-8226 leukemia = system: RPMI-8226 leukemia
HCT-15 colon = system: HCT-15 colon
MOLT-4 leukemia = system: MOLT-4 leukemia
HCC-2998 colon = system: HCC-2998 colon
NCI/ADR-RES ovarian = system: NCI/ADR-RES ovarian
HOP-62 NSCLC = system: HOP-62 NSCLC
BT-549 breast = system: BT-549 breast
MDA-MB-435 = system: MDA-MB-435
U251 CNS = system: U251 CNS

Q: Which results are given for `CN1CCN(Cc2ccc(NC(=O)c3cncc(C#Cc4cnc5ccc(NCCCO)nn45)c3)cc2C(F)(F)F)CC1`?
A: GI50 (UO-31 renal): 1320 nM; TGI (UO-31 renal): 3.69 µM; GI50 (HS 578T breast): 85.5 nM; TGI (HS 578T breast): 370 nM; GI50 (MALME-3M melanoma): 97.5 nM; TGI (MALME-3M melanoma): 438 nM; GI50 (NCI-H522 lung): 68.5 nM; TGI (NCI-H522 lung): 247 nM; GI50 (SF-295 CNS): 457 nM; TGI (SF-295 CNS): 1720 nM; GI50 (T-47D breast): 414 nM; TGI (T-47D breast): 3.26 µM; GI50 (IGROV1 ovarian): 104 nM; TGI (IGROV1 ovarian): 399 nM; GI50 (UACC-62 melanoma): 210 nM; TGI (UACC-62 melanoma): 974 nM; GI50 (HT29 colon): 108 nM; TGI (HT29 colon): 439 nM; GI50 (LOX IMVI melanoma): 59.9 nM; TGI (LOX IMVI melanoma): 270 nM; GI50 (CCRF-CEM leukemia): 24.8 nM; TGI (CCRF-CEM leukemia): 1810 nM; GI50 (MDA-MB-231 breast): 41.5 nM; TGI (MDA-MB-231 breast): 303 nM; GI50 (RXF 393 renal): 169 nM; TGI (RXF 393 renal): 548 nM; GI50 (SK-OV-3 ovarian): 308 nM; TGI (SK-OV-3 ovarian): 1590 nM; GI50 (OVCAR-3 ovarian): 137 nM; TGI (OVCAR-3 ovarian): 795 nM; GI50 (NCI-H460 lung): 171 nM; TGI (NCI-H460 lung): 610 nM; GI50 (M14 melanoma): 96.3 nM; TGI (M14 melanoma): 280 nM; GI50 (A549 NSCLC): 202 nM; TGI (A549 NSCLC): 1110 nM; GI50 (SK-MEL-5 melanoma): 617 nM; TGI (SK-MEL-5 melanoma): 1270 nM; GI50 (OVCAR-8 ovarian): 204 nM; TGI (OVCAR-8 ovarian): 1030 nM; GI50 (SN12C renal): 90.7 nM; TGI (SN12C renal): 1200 nM; GI50 (CAKI-1 renal): 177 nM; TGI (CAKI-1 renal): 1220 nM; GI50 (A498 renal): 314 nM; TGI (A498 renal): 1040 nM; GI50 (SNB-75 CNS): 26.3 nM; TGI (SNB-75 CNS): 137 nM; GI50 (UACC-257 melanoma): 318 nM; TGI (UACC-257 melanoma): 1500 nM; GI50 (TK-10 renal): 384 nM; TGI (TK-10 renal): 2150 nM; GI50 (PC-3 prostate): 243 nM; TGI (PC-3 prostate): 2820 nM; GI50 (SF-539 CNS): 23.9 nM; TGI (SF-539 CNS): 125 nM; GI50 (OVCAR-5 ovarian): 183 nM; TGI (OVCAR-5 ovarian): 1990 nM; GI50 (HCT-116 colon): 40.5 nM; TGI (HCT-116 colon): 221 nM; GI50 (EKVX NSCLC): 148 nM; TGI (EKVX NSCLC): 924 nM; GI50 (DU-145 prostate): 170 nM; TGI (DU-145 prostate): 1060 nM; GI50 (HOP-92 NSCLC): 21.1 nM; TGI (HOP-92 NSCLC): 124 nM; GI50 (786-0 renal): 299 nM; TGI (786-0 renal): 969 nM; GI50 (COLO 205 colon): 77.5 nM; TGI (COLO 205 colon): 188 nM; GI50 (OVCAR-4 ovarian): 166 nM; TGI (OVCAR-4 ovarian): 1330 nM; GI50 (SR leukemia): 32.2 nM; TGI (SR leukemia): 859 nM; GI50 (SK-MEL-2 melanoma): 79 nM; TGI (SK-MEL-2 melanoma): 178 nM; GI50 (KM12 colon): 11.2 nM; TGI (KM12 colon): 876 nM; GI50 (NCI-H226 lung): 62 nM; TGI (NCI-H226 lung): 311 nM; GI50 (SF-268 CNS): 126 nM; TGI (SF-268 CNS): 850 nM; GI50 (SK-MEL-28 melanoma): 245 nM; TGI (SK-MEL-28 melanoma): 1000 nM; GI50 (HL-60(TB) leukemia): 73.3 nM; TGI (HL-60(TB) leukemia): 462 nM; GI50 (SW-620 colon): 71.4 nM; TGI (SW-620 colon): 368 nM; GI50 (K-562 leukemia): 5 nM; TGI (K-562 leukemia): 1840 nM; GI50 (SNB-19 CNS): 304 nM; TGI (SNB-19 CNS): 2920 nM; GI50 (MCF7 breast): 43.7 nM; TGI (MCF7 breast): 404 nM; GI50 (ACHN renal): 483 nM; TGI (ACHN renal): 1490 nM; GI50 (RPMI-8226 leukemia): 206 nM; TGI (RPMI-8226 leukemia): 898 nM; GI50 (HCT-15 colon): 851 nM; TGI (HCT-15 colon): 2990 nM; GI50 (MOLT-4 leukemia): 43.5 nM; TGI (MOLT-4 leukemia): 1620 nM; GI50 (HCC-2998 colon): 222 nM; TGI (HCC-2998 colon): 1410 nM; GI50 (NCI/ADR-RES ovarian): 7.22 µM; TGI (NCI/ADR-RES ovarian): 18.2 µM; GI50 (HOP-62 NSCLC): 150 nM; TGI (HOP-62 NSCLC): 999 nM; GI50 (BT-549 breast): 343 nM; TGI (BT-549 breast): 864 nM; GI50 (MDA-MB-435): 71.1 nM; TGI (MDA-MB-435): 608 nM; GI50 (U251 CNS): 290 nM; TGI (U251 CNS): 1020 nM
